Test results: PubChem BioAssay AID256 (DTP/NCI, 2004)
Where “and” joins values, the source holds several entries; their conditions need not be identical. Equal entries are not always repeated. Toxic doses and inconclusive results are not listed.

Test system: CD2F1 mice, L1210 leukemia ip, survival T/C
Assay: NCI In Vivo Anticancer Drug Screen. Data for tumor model L1210 Leukemia (intraperitoneal) in CD2F1 (CDF1) mice
Details: higher = longer survival
In short: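 Mice carrying a transplanted tumor received test compound or vehicle alone. The value is the measurement in the treated group divided by that in the vehicle-treated control group.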

For `C[n+]1c(-c2cccc(OCCOCCOc3cccc(-c4c5cc(N)ccc5c5ccc(N)cc5[n+]4C)c3)c2)c2cc(N)ccc2c2ccc(N)cc21`, the T/C (endpoint: median survival time, dose: 1.0 mg/kg/injection, schedule: Q01DX009 (ip), vehicle: water) was 104 % of control, the T/C (endpoint: median survival time, dose: 2.0 mg/kg/injection, schedule: Q01DX009 (ip), vehicle: saline with Tween-80) was 101 % of control and the T/C (endpoint: median survival time, dose: 2.0 mg/kg/injection, schedule: Q01DX009 (ip), vehicle: water) was 114 % of control and 121 % of control. For the same compound, the T/C (endpoint: median survival time, dose: 4.0 mg/kg/injection, schedule: Q01DX009 (ip), vehicle: saline with Tween-80) was 102 % of control, the T/C (endpoint: median survival time, dose: 4.0 mg/kg/injection, schedule: Q01DX009 (ip), vehicle: water) was 114 % of control and the T/C (endpoint: median survival time, dose: 8.0 mg/kg/injection, schedule: Q01DX009 (ip), vehicle: saline with Tween-80) was 104 % of control. The T/C (endpoint: median survival time, dose: 8.0 mg/kg/injection, schedule: Q01DX009 (ip), vehicle: water) was 123 % of control, the T/C (endpoint: median survival time, dose: 16.0 mg/kg/injection, schedule: Q01DX009 (ip), vehicle: saline with Tween-80) was 105 % of control and the T/C (endpoint: median survival time, dose: 32.0 mg/kg/injection, schedule: Q01DX009 (ip), vehicle: saline with Tween-80) was 102 % of control.

With `O=C(O)C(O)C(O)C(O)C(O)CO.[NH-]C1CCCCC1[NH-].[Pt+2]` (stereo not given) the T/C (endpoint: mean survival time, dose: 6.25 mg/kg/injection, schedule: Q04DX003 (ip), vehicle: saline) was 150 % of control and 290 % of control, the T/C (endpoint: mean survival time, dose: 12.5 mg/kg/injection, schedule: Q04DX003 (ip), vehicle: saline) was 230 % of control and 277 % of control and the T/C (endpoint: mean survival time, dose: 25.0 mg/kg/injection, schedule: Q04DX003 (ip), vehicle: saline) was 244 % of control and 314 % of control.

For `O=C(O)CCOc1cc(F)c(Cl)cc1Cl`, the T/C (endpoint: mean survival time, dose: 100.0 mg/kg/injection, schedule: Q04DX002 (ip), vehicle: saline with Tween-80) was 94 % of control, the T/C (endpoint: mean survival time, dose: 200.0 mg/kg/injection, schedule: Q04DX002 (ip), vehicle: saline with Tween-80) was 86 % of control and the T/C (endpoint: mean survival time, dose: 400.0 mg/kg/injection, schedule: Q04DX002 (ip), vehicle: saline with Tween-80) was 86 % of control.

For `Nc1cccc(-c2nc3ncnc(N)c3[nH]2)c1`, the T/C (endpoint: mean survival time, dose: 100.0 mg/kg/injection, schedule: Q04DX003 (ip), vehicle: saline with Tween-80) was 94 % of control, the T/C (endpoint: mean survival time, dose: 200.0 mg/kg/injection, schedule: Q04DX003 (ip), vehicle: saline with Tween-80) was 94 % of control and the T/C (endpoint: mean survival time, dose: 400.0 mg/kg/injection, schedule: Q04DX003 (ip), vehicle: saline with Tween-80) was 93 % of control.

With `[CH3][Sn]([CH3])([Cl])[c]1cc[c]([Sn]([CH3])([CH3])[Cl])cc1` the T/C (endpoint: median survival time, dose: 0.12 mg/kg/injection, schedule: Q01DX009 (ip), vehicle: saline) was 100 % of control, the T/C (endpoint: median survival time, dose: 0.25 mg/kg/injection, schedule: Q01DX009 (ip), vehicle: saline) was 101 % of control and the T/C (endpoint: median survival time, dose: 0.5 mg/kg/injection, schedule: Q01DX009 (ip), vehicle: saline) was 105 % of control. For the same compound, the T/C (endpoint: median survival time, dose: 1.0 mg/kg/injection, schedule: Q01DX009 (ip), vehicle: saline) was 101 % of control and 108 % of control and the T/C (endpoint: median survival time, dose: 2.0 mg/kg/injection, schedule: Q01DX009 (ip), vehicle: saline) was 108 % of control and 110 % of control.

In the case of `CCCCCCCCC(=O)N1CCCCC1`, the T/C (endpoint: mean survival time, dose: 100.0 mg/kg/injection, schedule: Q04DX003 (ip), vehicle: saline) is reported as 101 % of control, the T/C (endpoint: mean survival time, dose: 200.0 mg/kg/injection, schedule: Q04DX003 (ip), vehicle: saline) is reported as 102 % of control and the T/C (endpoint: mean survival time, dose: 400.0 mg/kg/injection, schedule: Q04DX003 (ip), vehicle: saline) is reported as 96 % of control.

With `CCCCCC(CN(C)C)C(=O)/C=C/c1c(Cl)cccc1Cl` (stereo not given) the T/C (endpoint: mean survival time, dose: 6.25 mg/kg/injection, schedule: Q01DX009 (ip), vehicle: other) was 101 % of control, the T/C (endpoint: mean survival time, dose: 12.5 mg/kg/injection, schedule: Q01DX009 (ip), vehicle: other) was 101 % of control and the T/C (endpoint: mean survival time, dose: 25.0 mg/kg/injection, schedule: Q01DX009 (ip), vehicle: other) was 104 % of control. The T/C (endpoint: mean survival time, dose: 100.0 mg/kg/injection, schedule: Q01DX001 (ip), vehicle: Klucel (hydroxypropylcellulose) (HPC)) was 94 % of control.
